Where a name gives a salt, the structure may show the parent alone.
Target: T1, BACE1 enzyme (Homo sapiens, UniProt P56817)
T1 construct: transfected with a soluble BACE construct (BACE1deltaTM96His); His (C); made in house; host or cells: CHO-K1 cells (secreted into conditioned media)
Experiment: BACE1 Cell-Free Assay (fluorescence polarization, cleavage of synthetic APP substrate)
Format: biochemical
Settings: geometric mean of 2-4 determinations unless otherwise indicated (b: ≧5 determinations; c: single determination); 0.1 nM BACE1, 150 nM peptide substrate, pH 4.5, 3 hours at 37° C.
Excerpt: Beta-secretase (BACE) is one of the enzymes involved in the generation of the amyloid beta peptide found in the amyloid plaques of Alzheimer's disease patients. This assay measures the inhibition of the beta-secretase enzyme as it cleaves a non-native peptide.
A synthetic APP substrate that can be cleaved by beta-secretase having N-terminal biotin and made fluorescent by the covalent attachment of Oregon Green at the Cys residue is used to assay beta-secretase activity in the presence or absence of the inhibitory compounds. The substrate is Biotin-GLTNIKTEEISEISY^EVEFR-C[Oregon Green]KK-OH. The BACE1 enzyme is affinity purified material from conditioned media of CHO-K1 cells that have been transfected with a soluble BACE construct (BACE1deltaTM96His). Compounds are incubated in a ½ log dose response curve from a top concentration of 100 μM with BACE1 enzyme and the biotinylated fluorescent peptide in 384-well black plates (Thermo Scientific #4318). BACE1 is at a final concentration of 0.1 nM with a final concentration of peptide substrate of 150 nM in a reaction volume of 30 μL assay buffer [100 mM sodium acetate, pH 4.5 (brought to pH with acetic acid), and 0.001% Tween-20]. Plates are covered and incubated for 3 hours at 37° C. The reaction is stopped with the addition of 30 μL of 1.5 μM Streptavidin (Pierce, #21125). After a 10 minute incubation at room temperature, plates are read on a PerkinElmer EnVision for fluorescence polarization (Ex485 nm/Em530 nm). The activity of the beta-secretase enzyme is detected by changes in the fluorescence polarization that occur when the substrate is cleaved by the enzyme.

T1 sequence (P56817 46-457 limits assumed): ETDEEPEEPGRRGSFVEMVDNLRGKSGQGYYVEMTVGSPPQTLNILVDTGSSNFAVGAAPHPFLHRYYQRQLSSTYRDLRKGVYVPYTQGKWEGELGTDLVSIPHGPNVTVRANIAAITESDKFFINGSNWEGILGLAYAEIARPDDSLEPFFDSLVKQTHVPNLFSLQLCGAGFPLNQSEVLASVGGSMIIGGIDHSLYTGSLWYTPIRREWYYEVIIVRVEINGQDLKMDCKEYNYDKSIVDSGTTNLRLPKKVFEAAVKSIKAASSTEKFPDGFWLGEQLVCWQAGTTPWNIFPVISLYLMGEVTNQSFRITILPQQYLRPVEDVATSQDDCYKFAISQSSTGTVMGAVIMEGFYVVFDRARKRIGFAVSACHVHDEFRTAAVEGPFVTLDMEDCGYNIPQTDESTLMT

IC50 [nM]	Structure (SMILES)
31200	CN1C(N)=N[C@@](C)(c2nc(NC(=O)c3ccc(OC(F)F)cn3)cs2)[C@H](C2CC2)S1(=O)=O (single isomer, unassigned) [Example 3]
103	CN1C(N)=N[C@](C)(c2nc(NC(=O)c3ccc(OC(F)F)cn3)cs2)[C@@H](C2CC2)S1(=O)=O (single isomer, unassigned) [Example 4]
51	CN1C(N)=N[C@](C)(c2nc(NC(=O)c3ccc(OC(F)F)cn3)cs2)[C@H](C2CC2)S1(=O)=O (single isomer, unassigned) [Example 5]
18000	C[C@H]1[C@](C)(c2nc(NC(=O)c3ccc(OC(F)F)cn3)cs2)N=C(N)N(C)S1(=O)=O (single isomer, unassigned) [Example 10]
136	C[C@@H]1[C@@](C)(c2nc(NC(=O)c3ccc(OC(F)F)cn3)cs2)N=C(N)N(C)S1(=O)=O (single isomer, unassigned) [Example 11]
88	C[C@H]1[C@@](C)(c2nc(NC(=O)c3ccc(OC(F)F)cn3)cs2)N=C(N)N(C)S1(=O)=O (single isomer, unassigned) [Example 12]
33800	C[C@@H]1[C@](C)(c2nc(NC(=O)c3ccc(OC(F)F)cn3)cs2)N=C(N)N(C)S1(=O)=O (single isomer, unassigned) [Example 13]
60	CN1C(N)=N[C@](C)(c2nc(NC(=O)c3ccc(OC(F)F)cn3)cs2)CS1(=O)=O [Example 1, N-{2-[(5S)-3-amino-2,5-dimethyl-1,1-dioxido-5,6-dihydro-2H-1,2,4-thiadiazin-5-yl]-1,3-thiazol-4-yl}-5-(difluoromethoxy)pyridine-2-carboxamide]
185	CN1C(N)=NC(C)(c2nc(NC(=O)c3ccc(OC(F)F)cn3)cs2)C(C)(C)S1(=O)=O (stereo not drawn) [Example 6, N-[2-(3-amino-2,5,6,6-tetramethyl-1,1-dioxido-5,6-dihydro-2H-1,2,4-thiadiazin-5-yl)-1,3-thiazol-4-yl]-5-(difluoromethoxy)pyridine-2-carboxamide]
14200	CC[C@H]1[C@](C)(c2nc(NC(=O)c3ccc(OC(F)F)cn3)cs2)N=C(N)N(C)S1(=O)=O [Example 14, N-{2-[(5R,6S)-3-amino-6-ethyl-2,5-dimethyl-1,1-dioxido-5,6-dihydro-2H-1,2,4-thiadiazin-5-yl]-1,3-thiazol-4-yl}-5-(difluoromethoxy)pyridine-2-carboxamide]
371	CC[C@@H]1[C@@](C)(c2nc(NC(=O)c3ccc(OC(F)F)cn3)cs2)N=C(N)N(C)S1(=O)=O [Example 15, N-{2-[(5S,6R)-3-amino-6-ethyl-2,5-dimethyl-1,1-dioxido-5,6-dihydro-2H-1,2,4-thiadiazin-5-yl]-1,3-thiazol-4-yl}-5-(difluoromethoxy)pyridine-2-carboxamide]
3920	CC[C@@H]1[C@](C)(c2nc(NC(=O)c3ccc(OC(F)F)cn3)cs2)N=C(N)N(C)S1(=O)=O [Example 16, N-{2-[(5R,6R)-3-amino-6-ethyl-2,5-dimethyl-1,1-dioxido-5,6-dihydro-2H-1,2,4-thiadiazin-5-yl]-1,3-thiazol-4-yl}-5-(difluoromethoxy)pyridine-2-carboxamide]
200	CC[C@H]1[C@@](C)(c2nc(NC(=O)c3ccc(OC(F)F)cn3)cs2)N=C(N)N(C)S1(=O)=O [Example 17, N-{2-[(5S,6S)-3-amino-6-ethyl-2,5-dimethyl-1,1-dioxido-5,6-dihydro-2H-1,2,4-thiadiazin-5-yl]-1,3-thiazol-4-yl}-5-(difluoromethoxy)pyridine-2-carboxamide]

Further lines, the compound ahead of its results:

Structure (SMILES)	IC50 [nM]
CN1C(N)=N[C@@](C)(c2nc(NC(=O)c3ccc(OC(F)F)cn3)cs2)C(C)(C)S1(=O)=O (single isomer, unassigned) [Example 7]	4400
CN1C(N)=N[C@](C)(c2nc(NC(=O)c3ccc(OC(F)F)cn3)cs2)C(C)(C)S1(=O)=O (single isomer, unassigned) [Example 8]	78
CN1C(N)=N[C@](C)(c2nc(NC(=O)c3ccn(C(F)F)n3)cs2)CS1(=O)=O [Example 2, N-{2-[(5S)-3-amino-2,5-dimethyl-1,1-dioxido-5,6-dihydro-2H-1,2,4-thiadiazin-5-yl]-1,3-thiazol-4-yl}-1-(difluoromethyl)-1H-pyrazole-3-carboxamide]	19
Cc1cc(OC(F)F)cnc1C(=O)Nc1csc([C@]2(C)CS(=O)(=O)N(C)C(N)=N2)n1 [Example 9, N-{2-[(5S)-3-amino-2,5-dimethyl-1,1-dioxido-5,6-dihydro-2H-1,2,4-thiadiazin-5-yl]-1,3-thiazol-4-yl}-5-(difluoromethoxy)-3-methylpyridine-2-carboxamide, methanesulfonic acid salt]	29
CN1C(N)=N[C@](C)(c2nc(NC(=O)c3cnc(CF)cn3)cs2)CS1(=O)=O [Example 18, N-{2-[(5S)-3-amino-2,5-dimethyl-1,1-dioxido-5,6-dihydro-2H-1,2,4-thiadiazin-5-yl]-1,3-thiazol-4-yl}-5-(fluoromethyl)pyrazine-2-carboxamide]	246
CN1C(N)=N[C@](C)(c2nc(NC(=O)c3cnc(C(F)F)cn3)cs2)CS1(=O)=O [Example 19, N-{2-[(5S)-3-amino-2,5-dimethyl-1,1-dioxido-5,6-dihydro-2H-1,2,4-thiadiazin-5-yl]-1,3-thiazol-4-yl}-5-(difluoromethyl)pyrazine-2-carboxamide]	172
CN1C(N)=N[C@](C)(c2nc(NC(=O)c3ccc(Cl)cn3)cs2)CS1(=O)=O [Example 20, N-{2-[(5S)-3-amino-2,5-dimethyl-1,1-dioxido-5,6-dihydro-2H-1,2,4-thiadiazin-5-yl]-1,3-thiazol-4-yl}-5-chloropyridine-2-carboxamide]	42
CN1C(N)=N[C@](C)(c2nc(NC(=O)c3coc(CF)n3)cs2)CS1(=O)=O [Example 21, N-{2-[(5S)-3-amino-2,5-dimethyl-1,1-dioxido-5,6-dihydro-2H-1,2,4-thiadiazin-5-yl]-1,3-thiazol-4-yl}-2-(fluoromethyl)-1,3-oxazole-4-carboxamide]	11
CN1C(N)=N[C@](C)(c2nc(NC(=O)c3cnc(OCC(C)(F)F)cn3)cs2)CS1(=O)=O [Example 22, N-{2-[(5S)-3-amino-2,5-dimethyl-1,1-dioxido-5,6-dihydro-2H-1,2,4-thiadiazin-5-yl]-1,3-thiazol-4-yl}-5-(2,2-difluoropropoxy)pyrazine-2-carboxamide]	134
CC#CCOc1cnc(C(=O)Nc2csc([C@]3(C)CS(=O)(=O)N(C)C(N)=N3)n2)cn1 [Example 23, N-{2-[(5S)-3-amino-2,5-dimethyl-1,1-dioxido-5,6-dihydro-2H-1,2,4-thiadiazin-5-yl]-1,3-thiazol-4-yl}-5-(but-2-yn-1-yloxy)pyrazine-2-carboxamide]	13
CC#CCOc1ccc(C(=O)Nc2csc([C@]3(C)CS(=O)(=O)N(C)C(N)=N3)n2)nc1 [Example 24, N-{2-[(5S)-3-amino-2,5-dimethyl-1,1-dioxido-5,6-dihydro-2H-1,2,4-thiadiazin-5-yl]-1,3-thiazol-4-yl}-5-(but-2-yn-1-yloxy)pyridine-2-carboxamide]	13
CN1C(N)=N[C@](C)(c2nc(NC(=O)c3ncc(OC(F)F)cc3Cl)cs2)CS1(=O)=O [Example 25, N-{2-[(5S)-3-amino-2,5-dimethyl-1,1-dioxido-5,6-dihydro-2H-1,2,4-thiadiazin-5-yl]-1,3-thiazol-4-yl}-3-chloro-5-(difluoromethoxy)pyridine-2-carboxamide]	23
CN1C(N)=N[C@](C)(c2nc(NC(=O)c3ccc(C#N)cn3)cs2)CS1(=O)=O [Example 26, N-{2-[(5S)-3-amino-2,5-dimethyl-1,1-dioxido-5,6-dihydro-2H-1,2,4-thiadiazin-5-yl]-1,3-thiazol-4-yl}-5-cyanopyridine-2-carboxamide]	45
Cc1cc(C#N)cnc1C(=O)Nc1csc([C@]2(C)CS(=O)(=O)N(C)C(N)=N2)n1 [Example 27, N-{2-[(5S)-3-amino-2,5-dimethyl-1,1-dioxido-5,6-dihydro-2H-1,2,4-thiadiazin-5-yl]-1,3-thiazol-4-yl}-5-cyano-3-methylpyridine-2-carboxamide]	9
